{"source": "patent US11661398B2", "about": "“Cellular transport system for transferring a sulfonic acid construct carrying a cargo into the cytoplasm of a cell” (Scientist of Fortune, S.A., priority 2017, dated 2023)", "key": {"PnGGT*": {"biological_target": "T1, PnGGT* (Pseudomonas nitroreducens, UniProt E0D5C2, D405N)", "T1 sequence (E0D5C2 25-556 D405N limits assumed)": "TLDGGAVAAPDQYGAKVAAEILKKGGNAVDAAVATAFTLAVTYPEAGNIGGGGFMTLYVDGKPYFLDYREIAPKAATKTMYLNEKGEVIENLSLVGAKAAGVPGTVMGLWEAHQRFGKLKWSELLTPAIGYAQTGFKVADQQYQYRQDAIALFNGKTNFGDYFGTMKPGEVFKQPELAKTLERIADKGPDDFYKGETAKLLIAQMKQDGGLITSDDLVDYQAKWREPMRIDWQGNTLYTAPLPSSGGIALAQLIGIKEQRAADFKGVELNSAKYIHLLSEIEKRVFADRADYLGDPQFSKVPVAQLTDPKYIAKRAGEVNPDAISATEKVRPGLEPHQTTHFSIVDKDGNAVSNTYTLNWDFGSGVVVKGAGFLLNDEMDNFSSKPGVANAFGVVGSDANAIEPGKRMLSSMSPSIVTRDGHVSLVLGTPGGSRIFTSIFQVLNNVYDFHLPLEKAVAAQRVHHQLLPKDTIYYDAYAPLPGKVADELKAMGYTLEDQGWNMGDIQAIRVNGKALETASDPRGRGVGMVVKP", "test": "Sulfobutanoyl-L-leucine hydrolysis kinetics coupled to branched-chain amino acid kit", "format": "biochemical", "conditions": "50 mM Tris/HCl (pH 7.0)", "description": "(§1) FIG. 32. […] Due to the unknown composition of the kit, absolute quantification of leucine was not possible and the results relating to reaction rates are plotted as changes in absorbance over time. […] (b) Kinetics of PnGGT* P505T were determined with the same substrate concentrations and buffer as for PnGGT*. […] Fitting of the kinetic data was performed with SigmaPlot v.12.2. Dots represent the average of three independent measurements with standard deviations shown as error bars.\n(§2) For that, 50 μL of the BCAA reaction mix containing 46 μL BCAA assay buffer, 2 μL BCAA enzyme mix and 2 μL WST substrate mix were pre-incubated with 35 μL BCAA assay buffer and 5 μL purified PnGGT* (final concentration approximately 0.05 mg mL-1) at 37° C. […] The reaction rate of PnGGT* variants was determined as the specific difference in absorption over time (ΔA (450 nm) per minute per mg of purified protein)."}, "BW25113 ΔleuB": {"tested_on": "BW25113 ΔleuB", "test": "Intracellular release of leucine from sulfobutanoyl-L-leucine, growth on plates", "format": "cell-based, E. coli", "conditions": "2 mM compound, 0.5 mM taurine", "description": "(§3) For the experiments relating to the sulfonate based synthetic transport system, unless stated otherwise, growth experiments in selective medium were carried out in sulfur free MS minimal medium (4 mM citric acid, 1 mM MgCl2, 20 mM NH4Cl, 50 mM KH2PO4 and 1×NTA mix (10 μM nitrilotriacetic acid, 3 μM CaCl2, 3 μM FeCl3, 1 μM MnCl2, 0.3 μM ZnCl2, 0.3 μM H3B3, 0.3 μM CrC3, 0.3 μM COCl2, 0.3 μM CuCl2, 0.3 μM Ni2C, 0.3 μM Na2MoO4, 0.3 μM Na2SeO3)) supplemented with 0.5% glucose. MgSO4 (1 mM), MgCl2 (1 mM), L-leucine (0.4 mM), IPTG (0.5 mM), aTc (100 ng mL-1), nicotinic acid (various concentrations), 3-picolylamine (various concentrations) and sulfonates (various concentrations) as indicated in the text. […] Synthesis schemes for sulfobutanoyl-p-nitroanilide and other sulfonates are given below.\nIt was then tested if sulfobutanoyl-L-leucine can also be hydrolyzed intracellularly by GGT*. Strains BW25113 ΔleuB or BW25113 ΔleuB ΔssuD were transformed either with the empty vector pACT3 or the expression plasmids pACT3/EcGGT_ΔN24_D433N and pACT3/PnGGT_ΔN24_D405N. […] Taurine is taken up exclusively via TauABC and solely desulfonated by TauD. Addition of an excess of taurine should therefore not lead to competition with sulfobutanoyl-L-leucine for the SsuABC transporter and prevent TauD from using sulfobutanoyl-L-leucine as substrate, ensuring that the majority of sulfobutanoyl-L-leucine is hydroluzed by GGT*."}, "PnGGT* D385Y": {"tested_on": "PnGGT* D385Y", "test": "Sulfobutanoyl-L-leucine hydrolysis kinetics coupled to branched-chain amino acid kit", "format": "biochemical, Pseudomonas nitroreducens", "conditions": "50 mM Tris/HCl (pH 7.0), 10-1000 μM substrate", "description": "as §1, §2"}, "PnGGT* P505T": {"tested_on": "PnGGT* P505T", "test": "Sulfobutanoyl-L-leucine hydrolysis kinetics coupled to branched-chain amino acid kit", "format": "biochemical, Pseudomonas nitroreducens", "conditions": "50 mM Tris/HCl (pH 7.0)", "description": "as §1, §2"}, "TK082[pSsuABC]": {"tested_on": "TK082[pSsuABC]", "test": "Growth of leucine auxotrophic strain in liquid medium", "format": "cell-based, E. coli", "conditions": "liquid MS minimal medium, 0.25 mM compound, pACT3 versus pPnGGT*"}, "BW25113 ΔleuB (TK080)": {"tested_on": "BW25113 ΔleuB (TK080)", "test": "Growth on different sulfur sources", "format": "cell-based, E. coli", "conditions": "1 mM sulfur source, minimal medium, 0.5% glucose, 0.4 mM leucine", "description": "FIG. 21: Growth of E. coli on sulfonates. Strains TK080 (a; BW25113 ΔleuB) and TK082 (b; BW25113 ΔleuB ΔssuEADCB ΔtauD) were grown in MS minimal medium supplemented with 0.5% glucose, 0.4 mM L-leucine, 1 mM MgCl2 and 1 mM of a sulfur source. TK080 was able to use the majority of the tested sulfur sources with a similar efficiency as sulfate. […] Dots represent the average of three independent measurements with standard deviations shown as error bars.\nas §3\nThe sulfonate transporters SsuABC and TauABC transport a wide variety of sulfonate compounds (Eichhorn et al., 2000) and can thus be exploited for the present synthetic transport system. As such, the uptake and utilization of sulfobutanoyl-L-leucine was assessed. The leucine auxotrophic strain BW25113 ΔleuB was tested for growth in minimal medium supplemented with 0.5% glucose, 0.4 mM leucine, 0.4 mM isoleucine and 1 mM of a sulfur-containing compound as the sole sulfur source."}}, "note": "“Also recorded” adds a separate entry of the source.", "data": [{"smiles": "CC(C)C[C@H](NC(=O)CCCS(=O)(=O)O)C(=O)O", "note": "[sulfobutanoyl-L-leucine]", "values": [{"measurement": "K value relative to K value with sulfobutanoyl-p-nitroanilide", "setting": "PnGGT*", "result": "approximately three times higher"}, {"measurement": "growth with compound as leucine source", "setting": "BW25113 ΔleuB; expressing EcGGT ΔN24 D433N", "result": "slower growth"}, {"measurement": "growth with compound as leucine source", "setting": "BW25113 ΔleuB; expressing PnGGT ΔN24 D405N", "result": "grows best"}, {"measurement": "growth with compound as leucine source", "setting": "BW25113 ΔleuB; pACT3 empty vector control", "result": "weak growth"}, {"measurement": "improvement of Vmax over PnGGT*", "setting": "PnGGT* D385Y", "result": 1.55, "unit": "fold"}, {"measurement": "increase in Vmax in comparison to PnGGT*", "setting": "PnGGT* P505T", "result": 27, "unit": "%"}, {"measurement": "reduction in KM in comparison to PnGGT*", "setting": "PnGGT* P505T", "result": 46, "unit": "%"}, {"measurement": "growth with compound as sole leucine source", "setting": "TK082[pSsuABC]", "result": "only grew when cells were synthesizing PnGGT*"}, {"measurement": "growth with compound as sole sulfur source", "setting": "BW25113 ΔleuB (TK080)", "result": "comparable to growth on other sulfonates; also recorded: comparable efficiencies"}]}]}
